Experimental data published in patent publication US9663510B2, “Substituted triazolopyridines and their use as TTK inhibitors” (Bayer Intellectual Property GmbH, priority 2011, dated 2017).
Like-named read-outs stand apart in the source and are kept apart here.

Experiments:
[1] = system: HeLa human cervical tumor cells; experiment: HeLa cell proliferation assay (crystal violet); type: cell-based; settings: 96 h, 4 days incubation, read-out: Inhibition of cell proliferation, cell Line: HeLa IC50
human kinase Mps-1 = human kinase Mps-1 (Homo sapiens (Human), UniProt P33981); experiment: Mps-1 kinase assay (TR-FRET); type: biochemical
Chain of human kinase Mps-1 (P33981 whole entry): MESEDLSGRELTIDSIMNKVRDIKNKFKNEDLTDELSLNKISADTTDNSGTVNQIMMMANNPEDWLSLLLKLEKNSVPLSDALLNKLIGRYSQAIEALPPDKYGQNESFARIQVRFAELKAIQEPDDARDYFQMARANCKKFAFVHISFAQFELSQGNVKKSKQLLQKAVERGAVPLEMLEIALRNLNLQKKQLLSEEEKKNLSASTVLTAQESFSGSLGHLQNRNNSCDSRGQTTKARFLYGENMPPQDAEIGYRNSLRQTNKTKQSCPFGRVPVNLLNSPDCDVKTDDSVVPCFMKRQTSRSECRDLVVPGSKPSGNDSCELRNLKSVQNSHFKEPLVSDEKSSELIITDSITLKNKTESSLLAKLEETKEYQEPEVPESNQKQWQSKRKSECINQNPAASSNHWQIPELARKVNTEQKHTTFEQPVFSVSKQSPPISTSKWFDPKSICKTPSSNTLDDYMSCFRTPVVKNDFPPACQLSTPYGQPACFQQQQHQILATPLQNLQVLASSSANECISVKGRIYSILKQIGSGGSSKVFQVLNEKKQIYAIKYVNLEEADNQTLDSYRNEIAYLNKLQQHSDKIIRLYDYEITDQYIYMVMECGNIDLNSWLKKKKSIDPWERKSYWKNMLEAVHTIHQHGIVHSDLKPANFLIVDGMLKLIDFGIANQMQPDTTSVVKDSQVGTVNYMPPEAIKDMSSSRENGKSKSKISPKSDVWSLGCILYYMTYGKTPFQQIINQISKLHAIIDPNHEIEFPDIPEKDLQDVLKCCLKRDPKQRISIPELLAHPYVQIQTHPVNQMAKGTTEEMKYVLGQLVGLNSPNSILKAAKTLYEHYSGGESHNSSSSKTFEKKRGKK

[2] = Metabolic stability in vitro, dog liver microsomes (calculation of Fmax); type: in vitro ADME; settings: maximal oral bioavailability calculated from microsomal half-life, 1 μM
Description: (§1) The metabolic stability of test compounds in vitro was determined by incubating them at 1 μM with a suspension liver microsomes in 100 mM phosphate buffer, pH7.4 (NaH2PO4×H2O+Na2HPO4×2H2O) at a protein concentration of 0.5 mg/mL and at 37° C. The reaction was activated by adding a co-factor mix containing 1.2 mg NADP, 3 IU glucose-6-phosphate dehydrogenase, 14.6 mg glucose-6-phosphate and 4.9 mg MgCl2 in phosphate buffer, pH 7.4. Organic solvent in the incubations was limited to <0.2% dimethylsulfoxide (DMSO) and <1% methanol. During incubation, the microsomal suspensions were continuously shaken and aliquots were taken at 2, 8, 16, 30, 45 and 60 min, to which equal volumes of cold methanol were immediately added. Samples were frozen at −20° C. over night, subsequently centrifuged for 15 minutes at 3000 rpm and the supernatant was analyzed with an Agilent 1200 HPLC-system with LCMS/MS detection.
(§2) The half-life of a test compound was determined from the concentration-time plot. From the half-life the intrinsic clearances were calculated. Together with the additional parameters liver blood flow, specific liver weight and microsomal protein content the hepatic in vivo blood clearance (CL) and the maximal oral bioavailability (Fmax) were calculated for the different species. The following parameter values were used: Liver blood flow—1.3 L/h/kg (human), 2.1 L/h/kg (dog), 4.2 L/h/kg (rat); specific liver weight—21 g/kg (human), 39 g/kg (dog), 32 g/kg (rat); microsomal protein content—40 mg/g.
(§3) With the described assay only phase-I metabolism of microsomes is reflected, e.g. typically oxidoreductive reactions by cytochrome P450 enzymes and flavin mono-oxygenases (FMO) and hydrolytic reactions by esterases (esters and amides).

[3] = Metabolic stability in vitro, rat liver microsomes (calculation of Fmax); type: in vitro ADME; settings: maximal oral bioavailability calculated from microsomal half-life, 1 μM
Description: as §1, §2, §3

[4] = read-out: Mps-1 Inhibition, IC50 (Assay with 10 μM ATP), 10 μM ATP
[5] = read-out: Mps-1 Inhibition, IC50 (Assay with 2 mM ATP), 2 mM ATP

| Compound | IC50 [1] | IC50 (human kinase Mps-1; [4]) | IC50 (human kinase Mps-1; [5]) | also measured |
| --- | --- | --- | --- | --- |
| COc1cc(C(=O)N2CCCC2)ccc1Nc1nc2ccc(-c3ccc(NC(=O)[C@H](C)c4ccc(F)cc4)cc3)cn2n1 [Example01.13, (2R)-2-(4-fluorophenyl)-N-[4-(2-{[2-methoxy-4-(pyrrolidin-1-ylcarbonyl)phenyl]amino}[1,2,4]triazolo[1,5-a]pyridin-6-yl)phenyl]propanamide] | < 400 nM | < 1 nM | < 1 nM | – |
| CCOc1cc(S(C)(=O)=O)ccc1Nc1nc2ccc(-c3ccc(C(=O)NCc4ccc(F)cc4)c(C)c3)cn2n1 [reference compound] | – | – | – | Dog liver microsomes; Fmax [%] [2]: 12% |
| CS(=O)(=O)c1ccc(Nc2nc3ccc(-c4ccc(NC(=O)Cc5ccc(F)cc5)cc4)cn3n2)c(OCC(F)(F)F)c1 [reference compound] | – | – | – | Dog liver microsomes; Fmax [%] [2]: 25% |
| N#Cc1ccccc1Nc1nc2ccc(-c3ccc(NC(=O)C(F)c4ccccc4)cc3)cn2n1 (centres unmarked) [reference compound] | – | – | – | Rat liver microsomes; Fmax [%] [3]: 26% |
| COc1cc(C(=O)N2CCOCC2)ccc1Nc1nc2ccc(-c3ccc(NC(=O)Cc4ccc(F)cc4)cc3)cn2n1 [reference compound] | – | – | – | Rat liver microsomes; Fmax [%] [3]: 48% |
| COc1cc(C(=O)NCC(F)(F)F)ccc1Nc1nc2ccc(-c3ccc(NC(=O)Cc4ccc(F)cc4)cc3)cn2n1 [reference compound] | – | – | – | Dog liver microsomes; Fmax [%] [2]: 40% |
| COc1cc(N2CCOC2=O)ccc1Nc1nc2ccc(-c3ccc(NC(=O)Cc4ccc(F)cc4)cc3)cn2n1 [reference compound] | – | – | – | Dog liver microsomes; Fmax [%] [2]: 17% |
| COc1ccccc1Nc1nc2ccc(-c3ccc(NC(=O)Cc4ccccc4)cc3)cn2n1 [reference compound] | – | – | – | Rat liver microsomes; Fmax [%] [3]: 40% |
| N#Cc1ccccc1Nc1nc2ccc(-c3ccc(NC(=O)Cc4ccc(F)cc4)cc3)cn2n1 [reference compound] | – | – | – | Rat liver microsomes; Fmax [%] [3]: 40% |
| COc1cc(S(C)(=O)=O)ccc1Nc1nc2ccc(-c3ccc(NC(=O)Cc4ccc(F)cc4)cc3)cn2n1 [reference compound] | – | – | – | Dog liver microsomes; Fmax [%] [2]: 10% |
| COC(C(=O)Nc1ccc(-c2ccc3nc(Nc4ccccc4C#N)nn3c2)cc1)c1ccccc1 (centres unmarked) [reference compound] | – | – | – | Rat liver microsomes; Fmax [%] [3]: 19% |
| N#Cc1c(F)cccc1Nc1nc2ccc(-c3ccc(NC(=O)Cc4ccc(F)cc4)cc3)cn2n1 [reference compound] | – | – | – | Dog liver microsomes; Fmax [%] [2]: 15% |
| N#Cc1ccccc1Nc1nc2ccc(-c3ccc(NC(=O)C(F)(F)c4ccccc4)cc3)cn2n1 [reference compound] | – | – | – | Rat liver microsomes; Fmax [%] [3]: 27% |
| COc1cc(C(=O)N(C)C)ccc1Nc1nc2ccc(-c3ccc(NC(=O)[C@H](C)c4ccc(F)cc4)cc3)cn2n1 [Example01.12, 4-{[6-(4-{[(2R)-2-(4-fluorophenyl)propanoyl]amino}phenyl)[1,2,4]triazolo[1,5-a]pyridin-2-yl]amino}-3-methoxy-N,N-dimethylbenzamide] | < 200 nM | < 1 nM | < 1 nM | – |
| C[C@@H](C(=O)Nc1ccc(-c2ccc3nc(Nc4ccc(C(=O)N5CC(O)C5)cc4OCC(F)(F)F)nn3c2)cc1)c1ccc(F)cc1 [Example01.15, (2R)-2-(4-fluorophenyl)-N-{4-[2-({4-[(3-hydroxyazetidin-1-yl)carbonyl]-2-(2,2,2-trifluoroethoxy)phenyl}amino)[1,2,4]triazolo[1,5-a]pyridin-6-yl]phenyl}propanamide] | < 100 nM | < 1 nM | < 1 nM | – |
| C[C@@H](C(=O)Nc1ccc(-c2ccc3nc(Nc4ccc(C(=O)N5CC(F)C5)cc4OCC(F)(F)F)nn3c2)cc1)c1ccc(F)cc1 [Example01.14, (2R)—N-{4-[2-({4-[(3-fluoroazetidin-1-yl)carbonyl]-2-(2,2,2-trifluoroethoxy)phenyl}amino)[1,2,4]triazolo[1,5-a]pyridin-6-yl]phenyl}-2-(4-fluorophenyl)propanamide] | – | < 1 nM | < 1 nM | – |

Further lines, with some results ahead:

| IC50 [1] | IC50 (human kinase Mps-1; [4]) | IC50 (human kinase Mps-1; [5]) | Compound | also measured |
| --- | --- | --- | --- | --- |
| < 400 nM | < 1 nM | < 1 nM | COc1cc(C(=O)N2CCCC2)ccc1Nc1nc2ccc(-c3ccc(NC(=O)[C@H](N)c4ccc(F)cc4)cc3)cn2n1 [Example 01.23, (2R)-2-amino-2-(4-fluorophenyl)-N-[4-(2-{[2-methoxy-4-(pyrrolidin-1-ylcarbonyl)phenyl]amino}[1,2,4]triazolo[1,5-a]pyridin-6-yl)phenyl]ethanamide] | – |
| < 200 nM | < 1 nM | < 1 nM | N[C@@H](C(=O)Nc1ccc(-c2ccc3nc(Nc4ccc(C(=O)N5CCCC5)cc4OCC(F)(F)F)nn3c2)cc1)c1ccc(F)cc1 [Example 01.25, (2R)-2-amino-2-(4-fluorophenyl)-N-[4-(2-{[4-(pyrrolidin-1-ylcarbonyl)-2-(2,2,2-trifluoroethoxyl)phenyl]amino}[1,2,4]triazolo[1,5-a]pyridin-6-yl)phenyl]ethanamide] | – |
| < 100 nM | < 1 nM | < 1 nM | N[C@@H](C(=O)Nc1ccc(-c2ccc3nc(Nc4ccc(C(=O)N5CC(F)C5)cc4OCC(F)(F)F)nn3c2)cc1)c1ccc(F)cc1 [Example 01.24, (2R)-2-amino-N-{4-[2-({4-[(3-fluoroazetidin-1-yl)carbonyl]-2-(2,2,2-trifluoroethoxyl)phenyl}amino)[1,2,4]triazolo[1,5-a]pyridin-6-yl]phenyl}-2-(4-fluorophenyl)ethanamide] | – |
| < 200 nM | < 1 nM | – | COc1cc(N2CCOC2=O)ccc1Nc1nc2ccc(-c3ccc(NC(=O)[C@H](N)c4ccc(F)cc4)cc3)cn2n1 [Example 01.20, (2R)-2-amino-2-(4-fluorophenyl)-N-[4-(2-{[2-methoxy-4-(2-oxo-1,3-oxazolidin-3-yl)phenyl]amino}[1,2,4]triazolo[1,5-a]pyridin-6-yl)phenyl]ethanamide] | IC50 (human kinase Mps-1; 2 mM ATP): 1.5 nM |
| < 600 nM | < 1 nM | – | COc1cc(S(C)(=O)=O)ccc1Nc1nc2ccc(-c3ccc(NC(=O)[C@H](CO)c4ccc(F)cc4)cc3)cn2n1 [Example 01.17, (2S)-2-(4-fluorophenyl)-3-hydroxy-N-[4-(2-{[2-methoxy-4-(methylsulfonyl)phenyl]amino}[1,2,4]triazolo[1,5-a]pyridin-6-yl)phenyl]propanamide] | IC50 (human kinase Mps-1; 2 mM ATP): 4.8 nM |
| < 100 nM | < 1 nM | – | C[C@@H](C(=O)Nc1ccc(-c2ccc3nc(Nc4ccc(C(=O)N5CCCC5)cc4OCC(F)(F)F)nn3c2)cc1)c1ccc(F)cc1 [Example 01.16, (2R)-2-(4-fluorophenyl)-N-[4-(2-{[4-(pyrrolidin-1-ylcarbonyl)-2-(2,2,2-trifluoroethoxyl)phenyl]amino}[1,2,4]triazolo[1,5-a]pyridin-6-yl)phenyl]propanamide] | IC50 (human kinase Mps-1; 2 mM ATP): 1.3 nM |
| < 200 nM | < 1 nM | < 1 nM | CS(=O)(=O)c1ccc(Nc2nc3ccc(-c4ccc(NC(=O)[C@H](N)c5ccc(F)cc5)cc4)cn3n2)c(OCC(F)(F)F)c1 [Example 01.19, (2R)-2-amino-2-(4-fluorophenyl)-N-[4-(2-{[4-(methylsulfonyl)-2-(2,2,2-trifluoroethoxyl)phenyl]amino}[1,2,4]triazolo[1,5-a]pyridin-6-yl)phenyl]ethanamide] | – |
| < 200 nM | < 1 nM | < 1 nM | COc1cc(C(=O)N2CC(F)C2)ccc1Nc1nc2ccc(-c3ccc(NC(=O)[C@H](N)c4ccc(F)cc4)cc3)cn2n1 [Example 01.21, (2R)-2-amino-N-{4-[2-({4-[(3-fluoroazetidin-1-yl)carbonyl]-2-methoxyphenyl}amino)[1,2,4]triazolo[1,5-a]pyridin-6-yl]phenyl}-2-(4-fluorophenyl)ethanamide] | – |
| < 100 nM | < 1 nM | < 1 nM | O=C(Nc1ccc(-c2ccc3nc(Nc4ccc(C(=O)N5CC(F)C5)cc4OCC(F)(F)F)nn3c2)cc1)[C@H](CO)c1ccc(F)cc1 [Example 01.18, (2S)—N-{4-[2-({4-[(3-fluoroazetidin-1-yl)carbonyl]-2-(2,2,2-trifluoroethoxyl)phenyl}amino)[1,2,4]triazolo[1,5-a]pyridin-6-yl]phenyl}-2-(4-fluorophenyl)-3-hydroxypropanamide] | – |
| < 200 nM | < 1 nM | < 1 nM | COc1cc(C(=O)N2CCC2)ccc1Nc1nc2ccc(-c3ccc(NC(=O)[C@H](N)c4ccc(F)cc4)cc3)cn2n1 [Example 01.22, (2R)-2-amino-N-[4-(2-{[4-(azetidin-1-ylcarbonyl)-2-methoxyphenyl]amino}[1,2,4]triazolo[1,5-a]pyridin-6-yl)phenyl]-2-(4-fluorophenyl)ethanamide] | – |
